Measurements from the SangsterLogP compilation.

Tests used:
[1] = method code SF-RC, from DOI: 10.1248/cpb.39.104, PMID: 2049793; conditions: pH 7.4
[2] = not given; remark: listed apart in the source
[3] = method code SF, from DOI: 10.1055/s-0038-1624171, PMID: 6548017; conditions: pH 7.4
[4] = method code SF-HPLC, from DOI: 10.1016/0006-2952(84)90322-8, PMID: 6704182
[5] = not given; remark: listed apart in the source
[6] = method code SF-HPLC, from DOI: 10.1016/s0928-0987(98)00030-x, PMID: 9845810; conditions: pH 7.4
[7] = not given; remark: listed apart in the source
[8] = method code SF-AS, from DOI: 10.1021/js960328j, PMID: 9050798; conditions: pH 6.6
[9] = not given; remark: listed apart in the source
[10] = method code SF-AS, from DOI: 10.1016/0223-5234(96)88239-0; conditions: pH 2.0
[11] = method code SF-AS, from DOI: 10.1021/jm00162a004, PMID: 3023612
[12] = method code SF, from DOI: 10.1016/s0968-0896(00)00025-0, PMID: 10882003
[13] = method code SF-AS, from PMID: 301777
[14] = method code SF-AS, from DOI: 10.1016/s0006-2952(02)01074-2, PMID: 12392818; conditions: pH 7.4
[15] = method code SF-RC, from DOI: 10.1016/s0969-8051(00)00080-9, PMID: 10832080; conditions: pH 13.0
[16] = method code SF-RC,AS, from DOI: 10.1021/es60170a013; conditions: pH 8.7
[17] = method code G-GLC, from DOI: 10.1021/es00169a004
[18] = method code …, from Pirumyan, G.; Martiryan, A.; Skurlator, Yu.; Petrosyan, D.; Akhnazaryan, A.; Arutyunyan, V. (1988). Transformations of pyrazolone compounds for fish farming in aqueous medium. Chemical Journal of …
[19] = method code SF-AS, from PMID: 1705424; conditions: pH 7.4
[20] = method code SF-RC, from DOI: 10.1111/j.1399-3054.1990.tb08712.x
[21] = not given; remark: listed apart in the source
[22] = method code SF-HPLC, from DOI: 10.1021/js970451q, PMID: 9687340; conditions: pH 6.0
[23] = not given; remark: listed apart in the source
[24] = method code SF, from DOI: 10.1177/1087057110396372, PMID: 21343602; conditions: pH 7.4
[25] = method code SF-HPLC, from DOI: 10.1016/s0223-5234(97)84356-5
[26] = not given; remark: listed apart in the source
[27] = method code SF-AS, from DOI: 10.1002/jps.2600620542, PMID: 4705706
[28] = method code SF-GLC, from DOI: 10.1021/es00171a006
[29] = method code SF-GLC, from DOI: 10.1016/s0021-9673(00)81319-9
[30] = method code SF-GLC, from DOI: 10.1016/0045-6535(95)00311-u
[31] = not given; remark: listed apart in the source
[32] = method code SF-HPLC, from DOI: 10.1002/jps.10112, PMID: 12115830; conditions: pH 7.4
[33] = method code SF-RC, from DOI: 10.1023/a:1015825912542, PMID: 1808606; conditions: pH 7.2
[34] = method code SF-AS, from DOI: 10.1021/jf60177a051
[35] = method code SF-TN, from DOI: 10.1002/ardp.19763091008, PMID: 1008678
[36] = method code SF-AS, from DOI: 10.1016/s0021-9673(03)00617-4, PMID: 12830921
[37] = method code SF, from DOI: 10.1016/0378-5173(87)90234-1; conditions: pH 4.0
[38] = method code SF-RC, from PMID: 3382460; conditions: pH 7.0
[39] = method code SF-GLC, from DOI: 10.1016/j.chemosphere.2013.04.065, PMID: 23732011
[40] = not given; remark: listed apart in the source
[41] = not given; remark: listed apart in the source
[42] = method code SF-AS, from DOI: 10.1007/s001280000002, PMID: 10757653
[43] = not given; remark: listed apart in the source
[44] = method code SF-EPR, from DOI: 10.1007/bf01870789, PMID: 2549250; conditions: pH 12.0
[45] = method code SF-HPLC, from DOI: 10.1002/jps.2600841008, PMID: 8801331; conditions: pH 3.1
[46] = method code SF-AS, from DOI: 10.1016/s0090-9556(25)07961-9, PMID: 6130927; conditions: pH 12.0
[47] = method code SF-AS, from DOI: 10.1007/s00044-012-0399-x
[48] = not given; remark: listed apart in the source

CC(=O)c1ccc(C(C)C)cc1
logP: 2.98

CNC(=S)NN=C(C)C(C)(C)C(C)=NNC(=S)NC
logD [1]: 2.51

C=CC(=O)OCC(CC)CCCC (centres undefined)
logP [2]: 4.29

O=[N+]([O-])c1nccn1CCOc1ccc(I)cc1
logD [3]: 2.84

CC(=O)Nc1ccn([C@@H]2O[C@H](CO)[C@@H](O)[C@@H]2O)c(=O)n1
logP [4]: -1.35

c1cc2c3c(cccc3c1)CC2
logP [5]: 3.98

Cc1ccc2c(c1)C(=O)N(CCO[N+](=O)[O-])CO2
logD [6]: 2.41

CCC(C)c1ccccc1OC(=O)NC (centres undefined)
logP [7]: 2.8

CCCS(=O)c1ccc2[nH]c(NC(=O)OC)nc2c1 (centres undefined)
logD [8]: 1.27

Nc1ccc(S(=O)(=O)Nc2cccc(Cl)c2Cl)cc1
logP [9]: 2.62

Cn1c(C(=O)O)cnc1C(=O)c1ccc([N+](=O)[O-])cc1
logD [10]: 2.14

CCCC1(CCC)CCC=[N+]1[O-]
logP [11]: 0.69

Cc1[nH]c(=O)c(C#N)cc1-c1ccncc1
logP [12]: 0.42

CCc1nc(N)nc(N)c1-c1ccc(Cl)c(Cl)c1
logP [13]: 3.19

CC(=O)c1cc2ccccc2oc1=O
logD [14]: 1.5

CN1C2CCC1C(c1ccc(Cl)nc1)C2 (centres undefined)
logD [15]: 2.42

Nc1ccc(-c2ccc(N)c(Cl)c2)cc1Cl
logD [16]: 3.51

Clc1cc(Cl)c(-c2c(Cl)c(Cl)c(Cl)c(Cl)c2Cl)c(Cl)c1Cl
logP [17]: 7.52

CC1(C)CC(=O)NN1C=NNc1ccccc1
logP [18]: 0.26

CC(C)Cn1cnc2c1c(=O)n(C)c(=O)n2C
logD [19]: 1.28

c1ccc(CNc2ncnc3[nH]cnc23)cc1
logP [20]: 1.57

O=C(O)c1cccc2ccccc12
logP [21]: 2.78

COc1cc(C)nc(-n2nc(C)cc2OC)n1
logD [22]: 1.35

Clc1cc(Cl)c(Oc2ccccc2)cc1Cl
logP [23]: 5.44

c1ccc(Nc2ccccc2)cc1
logD [24]: 3.57

CC(=O)Nc1nc2c(ncn2COCCOC(C)=O)c(=O)[nH]1
logP [25]: -0.83

CCCCOC(=O)COc1cc(Cl)c(Cl)cc1Cl
logP [26]: 4.81

O=C(c1ccncc1)c1ccc(Cl)cc1
logP [27]: 2.61

Clc1cc(Cl)c2c(c1Cl)Oc1ccccc1O2
logP [28]: 5.57

Clc1cccc(-c2ccccc2)c1
logP [29]: 4.71

CCCCCCCCCC(Cl)(Cl)Cl
logP [30]: 5.85

OC1(c2ccc(Cl)cc2)CCNCC1
logP [31]: 1.98

CC(SSc1ncc[nH]1)c1ccccc1 (centres undefined)
logD [32]: 3.39

CC(=O)NC(Cc1ccccc1)C(N)=O (centres undefined)
logD [33]: 0.05

Cc1nc(C)c(C(=O)Nc2ccccc2)s1
logP [34]: 1.08

CCNC(=O)C1C2CC3C(OC(=O)C31)C2O (centres undefined)
logP [35]: -0.35

CCc1c(C)nc2ccccn2c1=O
logP [36]: 1.58

O=C(c1ccccc1)n1c(=O)[nH]cc(F)c1=O
logD [37]: 0.8

CNC(=O)OC1OC(=O)C2C3C=CC(C3)C12 (centres undefined)
logD [38]: 0.63

C=CCOc1ccccc1OCC=C
logP [39]: 2.7

CCCCCCCCn1sc(Cl)c(Cl)c1=O
logP [40]: 4.9

O=S(c1cc(Cl)cc(Cl)c1O)c1cc(Cl)cc(Cl)c1O
logP [41]: 4.13

CCOC(=O)c1cccc(C(=O)OCC)n1
logP [42]: 3

CCCOCCc1ccc(O)c(O)c1
logP [43]: 1.64

CN(C)C1CC(C)(C)N(O)C(C)(C)C1
logD [44]: 1.13

O=C(O)CCCCc1ccccc1
logD [45]: 2.73

CC(C)[C@@H](N)Cc1ccccc1
logD [46]: 2.59

COC(=O)CN1Cc2ccccc2C1
logP [47]: -0.03

CC(C)NCC(O)c1ccc(Cl)c(Cl)c1 (centres undefined)
logP [48]: 3.32
